Results reported in US20260226069A1, “GCN2 AND PERK KINASE MODULATORS AND METHODS OF USE THEREOF” (Deciphera Pharmaceuticals, LLC, priority 2023, published 2026).

Legend:
[1] = tested on: ATF4 in H929 Multiple Myeloma cells; test: H929 ATF4 ELISA assay; assay type: cell-based; conditions: four hours, fold stimulation of cellular ATF4 relative to vehicle treated control
Description: H929 multiple myeloma cells (catalog #CRL-9068) were obtained from the American Type Culture Collection (ATTC, Manassas, VA). Briefly, cells were grown in RPMI-1640 medium supplemented with 20% heat-inactivated fetal bovine serum (catalog #A3840002, ThermoFisher Scientific, Waltham, MA), 1% Penicillin/Streptomycin/L-Glutamine (catalog #10378016, ThermoFisher Scientific, Waltham, MA), and 0.05 mM 2-mercaptoethanol (catalog #21985-023, ThermoFisher Scientific, Waltham, MA) at 37° C., 5% CO2, and 95% humidity. Cells were expanded until reaching one million five hundred thousand cells per mL at which time they were sub-cultured or harvested for assay use. One million five hundred thousand cells per well in 1 mL complete growth medium were dispensed into 12-well plates and incubated overnight. A serial dilution of test compound was added, and cells were incubated at 37° C., 5% CO2, and 95% for four hours. Cells were lysed then ATF4 levels were measured using an ELISA assay (Proteintech, Rosemont, IL). Absorbance is measured at 450 nm and 544 nM using a Synergy2 or equivalent reader (Biotek, Winooski VT). Data were analyzed using PRISM software (Graphpad, San Diego, CA) to calculate fold stimulation of cellular ATF4 relative to vehicle treated control.

[2] = tested on: ASNase treated CCRF-CEM cells; test: CCRF-CEM ASNase cell proliferation assay, phenotypic assay for cellular inhibition of GCN2; assay type: cell-based; conditions: Homo sapiens, 1 mU/mL ASNase, 72 h, resazurin
Description: CCRF-CEM ASNase Cell Proliferation Assay, a Phenotypic Assay for Cellular Inhibition of GCN2.
CCRF-CEM leukemia cells (catalog #CCL-116) were obtained from the American Type Culture Collect (ATTC, Manassas, VA). Cells were grown in RPMI-1640 medium supplemented with 10% heat-inactivated fetal bovine serum (Invitrogen, Carlsbad, CA) and 1% Penicillin/Streptomycin/L-Glutamine at 37° C., 5% CO2, and 95% humidity. Cells were expanded until reaching one million cells per mL at which time they are subcultured or harvested for assay use. Ten thousand cells per well in 200 μL RPMI-1640 supplemented with 10% heat-inactivated fetal bovine serum and 1% Penicillin/Streptomycin were dispensed into a 96-well black clear bottom plate. A serial dilution of test compound and 1 mU/mL ASNase was added in triplicate and plates were incubated for 72 h at 37° C., 5% CO2, and 95% humidity. At the end of the incubation, 40 μL of a […] solution of resazurin (Sigma, St. Louis, MO) in PBS was added to each well of the plate and plates were incubated for an additional 6 h at 37° C., 5% CO2, and 95% humidity. Plates were read on a Synergy2 or equivalent reader (Biotek, Winooski VT) using an excitation of 540 nm and an emission of 600 nm. Data was analyzed using GraphPad Prism software (GraphPad, San Diego, CA) to calculate IC50 values.

GCN2 kinase = target: T1, GCN2 kinase (Homo sapiens, UniProt Q9P2K8); test: Biochemical assay for GCN2 (TR-FRET kinase activity assay); conditions: 2 nM GCN2, 1 mM ATP, 3-hour incubation
T1 construct: G556E with a; purchased Carna Biosciences
Description: Biochemical assay for GCN2
Activity of GCN2 kinase was determined using a TR-FRET kinase activity assay (e.g., Analytical Biochemistry, 2006, 356, 108-116). Assays were conducted in 384-well plates (13 μL assay volume) using 2 nM GCN2 (Carna Biosciences), 130 nM GFP-EIf2α (Invitrogen), 0.2 mg/mL E. coli tRNA (sigma) and 1 mM ATP in kinase buffer (Invitrogen). Inhibition of GCN2 was measured by adding serial diluted test compound (final assay concentration of 0.5% DMSO) followed by a 3-hour incubation. Tb-peIF2α (pSer52) antibody (Invitrogen) (2 nM final assay concentration) in kinase buffer containing EDTA (final assay concentration of 20 mM) was added. After a 60 min incubation at room temperature, TR-FRET was monitored using an excitation wavelength of 340 nm and emission wavelengths of 490 nm and 520 nm. The emission ratio (520/490) at each compound concentration of was converted to percent inhibition using controls (i.e., reaction with no test compound and reaction with a known inhibitor) and IC50 values were calculated by fitting a four-parameter sigmoidal curve to the data using Prism (GraphPad software).

PERK kinase = target: T2, PERK kinase (Homo sapiens, UniProt Q9NZJ5, A704S); test: Biochemical assay for PERK (coupled pyruvate kinase/lactate dehydrogenase assay); conditions: 10 nM PERK, 1 mM ATP, reaction rate 2-3 h time frame, 30° C.
T2 construct: GST (with thrombin site LVPRGS); purchased Beryllium
Description: Biochemical Assay for PERK
Activity of PERK kinase was determined spectroscopically using a coupled pyruvate kinase/lactate dehydrogenase assay that continuously monitors the ATP hydrolysis-dependent oxidation of NADH (Science, 2000, 289, 1938-1942). Assays were conducted in 384-well plates (100 μL final volume) using 10 nM PERK (from Beryllium), 0.25 mg/mL Myelin Basic Protein substrate, 1.5 units pyruvate kinase, 2.1 units lactate dehydrogenase, 1 mM phosphoenol pyruvate, 0.28 mM NADH and 1 mM ATP in assay buffer (100 mM Tris, pH 7.5, 15 mM MgCl2, 0.5 mM DTT, 0.004% (w/v) BSA, and 0.004% Triton X-100). Inhibition of PERK was measured by adding serial diluted test compound (final assay concentration of 1% DMSO). A decrease in absorption at 340 nm was monitored continuously for 6 hours at 30° C. on a multi-mode microplate reader (BioTek). The reaction rate was calculated using the 2-3 h time frame. The reaction rate at each concentration of compound was converted to percent inhibition using controls (i.e., reaction with no test compound and reaction with a known inhibitor) and IC50 values were calculated using software routines in Prism (GraphPad software).

[3] = tested on: ATF4 in Thapsigargin stimulated CCRF-CEM cells; test: CCRF-CEM TG ATF4 ELISA, phenotypic assay for cellular inhibition of PERK preactivated by thapsigargin; assay type: cell-based; conditions: Homo sapiens, 3 h, compound three hours then 1 μM thapsigargin for an additional hour
Description: CCRF-CEM TG ATF4 ELISA, a Phenotypic Assay for Cellular Inhibition of PERK Preactivated by Thapsigargin (TG)
CCRF-CEM leukemia cells (catalog #CCL-116) were obtained from the American Type Culture Collection (ATTC, Manassas, VA). Briefly, cells were grown in RPMI-1640 medium supplemented with 10% heat-inactivated fetal bovine serum (Invitrogen, Carlsbad, CA) and 1% Penicillin/Streptomycin/L-Glutamine at 37° C., 5% CO2, and 95% humidity. Cells were expanded until reaching one million cells per mL at which time they were subcultured or harvested for assay use. One million five hundred thousand cells per well in 1 mL complete growth medium were dispensed into 12-well plates and incubated overnight. A serial dilution of test compound was added and cells were incubated at 37° C., 5% CO2, and 95% for three hours, then 1 μM thapsigargin was added and cells were incubated for an additional hour at 37° C., 5% CO2, and 95%. Cells were lysed then ATF4 levels were measured using an ELISA assay (Proteintech, Rosemont, IL). Absorbance was measured at 450 nm and 544 nM using a Synergy2 or equivalent reader (Biotek, Winooski VT). Data was analyzed using PRISM software (Graphpad, San Diego, CA) to calculate IC50 values.

T2 sequence (Q9NZJ5 with tags, fused parts or gaps A704S): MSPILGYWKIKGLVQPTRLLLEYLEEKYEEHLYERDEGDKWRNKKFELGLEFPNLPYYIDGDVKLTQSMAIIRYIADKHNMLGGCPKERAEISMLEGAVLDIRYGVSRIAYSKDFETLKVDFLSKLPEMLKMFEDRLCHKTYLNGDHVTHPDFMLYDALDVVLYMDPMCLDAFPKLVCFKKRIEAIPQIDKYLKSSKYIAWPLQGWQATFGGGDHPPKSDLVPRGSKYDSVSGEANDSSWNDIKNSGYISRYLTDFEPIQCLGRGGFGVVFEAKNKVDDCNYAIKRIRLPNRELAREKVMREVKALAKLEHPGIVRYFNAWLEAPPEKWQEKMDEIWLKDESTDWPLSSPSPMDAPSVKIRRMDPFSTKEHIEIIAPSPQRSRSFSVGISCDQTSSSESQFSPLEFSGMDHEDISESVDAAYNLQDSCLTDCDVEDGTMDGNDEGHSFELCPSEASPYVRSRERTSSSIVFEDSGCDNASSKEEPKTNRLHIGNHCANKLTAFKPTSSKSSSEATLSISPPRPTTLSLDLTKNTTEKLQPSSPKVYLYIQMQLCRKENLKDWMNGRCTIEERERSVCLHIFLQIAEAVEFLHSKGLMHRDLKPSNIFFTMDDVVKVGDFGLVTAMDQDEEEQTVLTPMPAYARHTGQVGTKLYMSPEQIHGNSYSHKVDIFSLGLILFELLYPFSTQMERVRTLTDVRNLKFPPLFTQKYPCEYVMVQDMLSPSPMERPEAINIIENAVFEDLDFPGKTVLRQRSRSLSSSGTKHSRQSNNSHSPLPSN

IC50 [2] [µM]	IC50 (GCN2 kinase) [µM]	IC50 (PERK kinase) [µM]	IC50 [3] [µM]	SMILES	H929 NS ATF4 ELISA [1]
1 to 10	1 to 10	≤ 0.1	1 to 10	COc1ncc(Cl)cc1S(=O)(=O)Nc1cc(F)c(F)c(-c2cn(C)c3ncnc(N)c23)c1 [Example 43]	+ (an ATF4 stim less than or equal to 5-fold)
1 to 10	0.5 to 1	≤ 0.1	0.1 to 0.5	Cn1cc(-c2cccc(NS(=O)(=O)c3cc(Cl)cc(/C=N\O)c3Cl)c2F)c2c(N)ncnc21 [Example 52, (Z)—N-(3-(4-amino-7-methyl-7H-pyrrolo[2,3-d]pyrimidin-5-yl)-2-fluorophenyl)-2,5-dichloro-3-((hydroxyimino)methyl)benzenesulfonamide]	++++ (an ATF4 stim greater than 20-fold)
